Assay results taken from US10342823B2, “Topical and oral formulations comprising taurine and magnesium for the prevention and treatment of acne” (priority 2015, dated 2019).

Experiments:
[1] = system: acne; assay: Study Volunteer experiences with oral taurine-magnesium treatment regimens; type: in vivo, human; details: for Treatment Outcome: TAU 1500 mg/day, Mg 0
Source text: The following non-limiting examples show Study Volunteer experiences with various taurine-magnesium treatment regimens. Volunteers were listed in the chronological order of the start of their taking full daily doses of taurine with magnesium.
Severity of acne was the following: Volunteers 1 and 2 had sporadic mild acne, Volunteers 3 and 4 had chronic cyclic mild acne, Volunteer 5 had chronic acne that appeared to be between mild and moderate, Volunteer 6 had chronic severe acne with scarring, Volunteer 7 had chronic moderate acne, Volunteer 8 had frequent mild acne, and Volunteer 9 had acne that appeared to be between mild and moderate.
The data provided in the Examples support the surprising conclusion that relatively high doses of taurine together with magnesium provide excellent treatment and in some cases prevention of mild to severe acne. […] As described in the Examples, some Volunteers, in addition to taking their recommended supplements of taurine and magnesium, for some weeks or months took other micronutrient supplements or even a multivitamin/mineral supplement containing an extra low dose of magnesium.

[2] = target: T1, LXR-alpha (Homo sapiens, UniProt Q13133); details: liver cells in vitro; cited from earlier work
T1 construct: host or cells: liver cells in vitro
T1 sequence (Q13133 1-447): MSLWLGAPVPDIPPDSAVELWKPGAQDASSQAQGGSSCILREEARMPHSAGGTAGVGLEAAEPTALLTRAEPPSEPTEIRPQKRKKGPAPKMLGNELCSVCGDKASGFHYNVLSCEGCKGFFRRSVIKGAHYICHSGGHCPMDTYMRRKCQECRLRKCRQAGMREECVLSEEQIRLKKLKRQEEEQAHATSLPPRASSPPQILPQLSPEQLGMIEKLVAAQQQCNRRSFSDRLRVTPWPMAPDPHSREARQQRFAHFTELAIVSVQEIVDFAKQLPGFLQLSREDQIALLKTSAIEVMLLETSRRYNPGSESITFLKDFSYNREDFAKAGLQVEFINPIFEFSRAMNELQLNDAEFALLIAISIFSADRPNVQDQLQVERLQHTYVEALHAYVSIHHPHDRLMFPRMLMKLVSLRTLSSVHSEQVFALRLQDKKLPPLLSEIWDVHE

NCCS(=O)(=O)O [taurine]
Treatment Outcome ([1]; Volunteer 2, mild acne with noticeable lesions, 5 days): No improvement
Improvement of acne lesions ([1]; Volunteer 2, taurine alone 1.5 g daily, 5 days): no improvement
Treatment Outcome ([1]; Volunteer 4, mild acne, break-out lesions with menstrual period, 7 days): Slight
Improvement of acne ([1]; Volunteer 4, taurine only, first week): slight improvement
Cellular lipid levels [2]: dose-dependent marked reduction
LXR-alpha ligand activity / lipogenesis [2]: ligand of LXR-alpha that inhibits lipogenesis
